The numbers were not newly measured in patent US20220009914A1, “Analogs of Nitrofuran Antibiotics to Combat Resistance” (The Trustees of Indiana University, priority 2020, published 2022), which cites them from elsewhere.

One data set addresses T1, E. coli GroEL/ES (Escherichia coli, UniProt P0A6F5).
T1 construct: made in house; host or cells: GroEL in NEB 5-alpha E. coli; GroES in E. coli BL21 (DE3)
The conditions noted are these: read-out: IC50 GroEL/ES-mediated refolding of denatured malate dehydrogenase; previously found; cited from earlier work.

The subject of data set [1] is Acinetobacter baumannii strain 2208 (ATCC 19606). The conditions noted are these: previously found; read-out: EC50 proliferation of A. baumannii; cited from earlier work.
The next data set has as its system B. subtilis. The conditions noted are these: previously found; read-out: EC50 proliferation of B. subtilis; cited from earlier work.
Data set [2] relates to methicillin-resistant S. aureus. The conditions noted are these: previously found; read-out: EC50 proliferation of methicillin-resistant S. aureus; cited from earlier work.
The next data set concerns SM101 E. coli. The conditions noted are these: previously found; read-out: EC50 proliferation of SM101 E. coli; cited from earlier work.

T1 sequence (P0A6F5 2-548): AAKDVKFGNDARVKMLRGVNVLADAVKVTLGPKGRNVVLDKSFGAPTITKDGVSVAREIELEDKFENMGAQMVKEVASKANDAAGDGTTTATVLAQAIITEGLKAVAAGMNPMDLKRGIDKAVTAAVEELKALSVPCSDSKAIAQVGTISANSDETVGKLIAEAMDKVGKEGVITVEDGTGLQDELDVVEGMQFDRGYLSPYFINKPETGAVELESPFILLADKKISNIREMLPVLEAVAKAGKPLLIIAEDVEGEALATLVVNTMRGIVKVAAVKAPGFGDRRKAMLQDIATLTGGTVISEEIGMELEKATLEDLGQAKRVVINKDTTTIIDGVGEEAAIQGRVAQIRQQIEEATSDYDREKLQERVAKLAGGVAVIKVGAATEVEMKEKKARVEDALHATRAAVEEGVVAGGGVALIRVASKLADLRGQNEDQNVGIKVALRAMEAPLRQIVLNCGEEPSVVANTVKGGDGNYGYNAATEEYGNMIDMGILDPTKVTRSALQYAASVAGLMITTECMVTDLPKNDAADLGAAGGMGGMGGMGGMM

`COc1ccc(C(=O)N/N=C/c2ccc(O)c3ncccc23)cc1` [Compound 1, N′-((8-hydroxyquinolin-5-yl)methylene)-4-methoxybenzohydrazide]: the IC50 at E. coli GroEL/ES is 31 µM. Moreover, the EC50 in data set [1] was 32 µM; in the data set on B. subtilis it was 83 µM; in data set [2], 56 µM; in the data set with SM101 E. coli, 19 µM.
